Paper PMC6407913, “DREADD Agonist 21 Is an Effective Agonist for Muscarinic-Based DREADDs in Vitro and in Vivo” (ACS Pharmacology & Translational Science, 2018)
“And” between values parts separate entries of the source, which are not always exact repeats. Equal values may be shown once. Read-outs that look alike come from different tables or passages of the source.

How the values were obtained:
Format in all cases: cell-based
[1] = biological target: T1, 318 nonolfactory human GPCRs (Homo sapiens, UniProt O00222); conditions: GRM8; C21 5 µM
T1 construct: expressed in transfected cells; host or cells: HTLA cells, transient

[2] = biological target: T2, 318 nonolfactory human GPCRs (Homo sapiens, UniProt O14842); conditions: FFA1; C21 5 µM
T2 construct: expressed in transfected cells; host or cells: HTLA cells, transient

[3] = biological target: T3, 318 nonolfactory human GPCRs (Homo sapiens, UniProt O15354); conditions: GPR37; C21 5 µM
T3 construct: expressed in transfected cells; host or cells: HTLA cells, transient

[4] = biological target: T4, 318 nonolfactory human GPCRs (Homo sapiens, UniProt O95838); conditions: GLP2R; C21 5 µM
T4 construct: expressed in transfected cells; host or cells: HTLA cells, transient

[5] = biological target: T5, 318 nonolfactory human GPCRs (Homo sapiens, UniProt P24530); conditions: EDNRB; C21 5 µM
T5 construct: expressed in transfected cells; host or cells: HTLA cells, transient

[6] = biological target: T6, 318 nonolfactory human GPCRs (Homo sapiens, UniProt P25101); conditions: EDNRA; C21 5 µM
T6 construct: expressed in transfected cells; host or cells: HTLA cells, transient

[7] = biological target: 318 nonolfactory human GPCRs (Homo sapiens, UniProt P28221); conditions: HTR1D; C21 5 µM
[8] = biological target: T7, 318 nonolfactory human GPCRs (Homo sapiens, UniProt P29371); conditions: TACR3; C21 5 µM
T7 construct: expressed in transfected cells; host or cells: HTLA cells, transient
T7 sequence (P29371 whole entry): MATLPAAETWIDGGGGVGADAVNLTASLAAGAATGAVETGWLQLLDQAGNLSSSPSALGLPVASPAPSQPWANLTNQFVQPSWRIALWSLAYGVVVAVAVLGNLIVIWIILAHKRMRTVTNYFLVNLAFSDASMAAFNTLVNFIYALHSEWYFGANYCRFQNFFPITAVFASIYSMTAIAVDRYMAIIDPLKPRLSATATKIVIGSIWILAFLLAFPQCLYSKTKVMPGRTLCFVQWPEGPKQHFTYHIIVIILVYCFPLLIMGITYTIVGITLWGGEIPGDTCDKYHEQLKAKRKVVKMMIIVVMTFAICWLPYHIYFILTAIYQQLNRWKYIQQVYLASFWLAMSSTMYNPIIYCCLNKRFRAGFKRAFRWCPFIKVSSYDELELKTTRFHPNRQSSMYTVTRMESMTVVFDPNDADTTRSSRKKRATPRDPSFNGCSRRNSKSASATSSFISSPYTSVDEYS

[9] = biological target: T8, 318 nonolfactory human GPCRs (Homo sapiens, UniProt P30559); conditions: OXTR; C21 5 µM
T8 construct: expressed in transfected cells; host or cells: HTLA cells, transient
T8 sequence (P30559 whole entry): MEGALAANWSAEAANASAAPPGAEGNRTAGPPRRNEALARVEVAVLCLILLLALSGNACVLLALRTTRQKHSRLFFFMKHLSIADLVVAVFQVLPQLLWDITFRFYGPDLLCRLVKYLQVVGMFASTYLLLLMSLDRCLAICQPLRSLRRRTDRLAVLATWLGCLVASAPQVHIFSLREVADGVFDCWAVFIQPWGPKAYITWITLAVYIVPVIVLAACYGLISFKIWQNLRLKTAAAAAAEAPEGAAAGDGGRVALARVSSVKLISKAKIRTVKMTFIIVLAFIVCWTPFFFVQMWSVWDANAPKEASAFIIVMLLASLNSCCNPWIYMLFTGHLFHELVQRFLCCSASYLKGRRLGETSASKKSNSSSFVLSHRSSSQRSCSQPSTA

[10] = biological target: 318 nonolfactory human GPCRs (Homo sapiens, UniProt P30872); conditions: SSTR1; C21 5 µM
[11] = biological target: T9, 318 nonolfactory human GPCRs (Homo sapiens, UniProt P30968); conditions: GNRHR; C21 5 µM
T9 construct: expressed in transfected cells; host or cells: HTLA cells, transient

[12] = biological target: 318 nonolfactory human GPCRs (Homo sapiens, UniProt P30989); conditions: NTSR1; C21 5 µM
[13] = biological target: T10, 318 nonolfactory human GPCRs (Homo sapiens, UniProt P32241); conditions: VIPR1; C21 5 µM
T10 construct: expressed in transfected cells; host or cells: HTLA cells, transient

[14] = biological target: T11, 318 nonolfactory human GPCRs (Homo sapiens, UniProt P32245); conditions: MC4R; C21 5 µM
T11 construct: expressed in transfected cells; host or cells: HTLA cells, transient

[15] = biological target: T12, 318 nonolfactory human GPCRs (Homo sapiens, UniProt P41594); conditions: GRM5; C21 5 µM
T12 construct: expressed in transfected cells; host or cells: HTLA cells, transient

[16] = biological target: T13, 318 nonolfactory human GPCRs (Homo sapiens, UniProt P46095); conditions: GPR6; C21 5 µM
T13 construct: expressed in transfected cells; host or cells: HTLA cells, transient

[17] = biological target: T14, 318 nonolfactory human GPCRs (Homo sapiens, UniProt P47871); conditions: GCGR; C21 5 µM
T14 construct: expressed in transfected cells; host or cells: HTLA cells, transient

[18] = biological target: 318 nonolfactory human GPCRs (Homo sapiens, UniProt P48546); conditions: GIPR; C21 5 µM
[19] = biological target: T15, 318 nonolfactory human GPCRs (Homo sapiens, UniProt Q01726); conditions: MC1R; C21 5 µM
T15 construct: expressed in transfected cells; host or cells: HTLA cells, transient
T15 sequence (Q01726 whole entry): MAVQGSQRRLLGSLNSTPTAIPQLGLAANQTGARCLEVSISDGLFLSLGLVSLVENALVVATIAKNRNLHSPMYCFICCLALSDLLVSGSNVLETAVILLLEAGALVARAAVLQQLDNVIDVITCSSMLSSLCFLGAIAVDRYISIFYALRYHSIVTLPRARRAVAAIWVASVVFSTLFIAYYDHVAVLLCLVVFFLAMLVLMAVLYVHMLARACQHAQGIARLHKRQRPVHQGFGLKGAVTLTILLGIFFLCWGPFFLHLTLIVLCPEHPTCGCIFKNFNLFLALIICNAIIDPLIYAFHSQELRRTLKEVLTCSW

[20] = biological target: T16, 318 nonolfactory human GPCRs (Homo sapiens, UniProt Q14416); conditions: GMR2; C21 5 µM
T16 construct: expressed in transfected cells; host or cells: HTLA cells, transient
T16 sequence (Q14416 19-872): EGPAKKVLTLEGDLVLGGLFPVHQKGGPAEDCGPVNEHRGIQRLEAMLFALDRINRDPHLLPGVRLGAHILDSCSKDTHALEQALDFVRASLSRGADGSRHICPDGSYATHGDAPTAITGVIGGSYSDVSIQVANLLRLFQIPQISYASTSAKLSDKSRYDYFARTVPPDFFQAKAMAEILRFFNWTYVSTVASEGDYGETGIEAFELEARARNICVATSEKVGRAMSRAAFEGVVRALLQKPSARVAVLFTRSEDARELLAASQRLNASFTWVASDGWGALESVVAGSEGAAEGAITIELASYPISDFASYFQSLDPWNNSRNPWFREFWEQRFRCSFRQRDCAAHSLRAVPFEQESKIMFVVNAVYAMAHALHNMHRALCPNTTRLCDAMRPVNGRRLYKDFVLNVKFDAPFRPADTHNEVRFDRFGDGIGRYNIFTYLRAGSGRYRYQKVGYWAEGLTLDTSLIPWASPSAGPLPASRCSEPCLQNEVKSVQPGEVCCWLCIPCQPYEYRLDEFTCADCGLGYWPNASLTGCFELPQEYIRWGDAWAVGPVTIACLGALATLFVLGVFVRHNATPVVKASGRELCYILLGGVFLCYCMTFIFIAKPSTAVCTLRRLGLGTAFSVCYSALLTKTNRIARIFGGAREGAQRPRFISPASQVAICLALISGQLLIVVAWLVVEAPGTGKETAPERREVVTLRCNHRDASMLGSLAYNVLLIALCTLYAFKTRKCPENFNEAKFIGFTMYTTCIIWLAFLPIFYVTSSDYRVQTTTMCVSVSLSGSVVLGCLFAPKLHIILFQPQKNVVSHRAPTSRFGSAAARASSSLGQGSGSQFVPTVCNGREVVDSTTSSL

[21] = biological target: T17, 318 nonolfactory human GPCRs (Homo sapiens, UniProt Q8IWK6); conditions: GPR125; C21 5 µM
T17 construct: expressed in transfected cells; host or cells: HTLA cells, transient

[22] = biological target: T18, 318 nonolfactory human GPCRs (Homo sapiens, UniProt Q8TDT2); conditions: GPR152; C21 5 µM
T18 construct: expressed in transfected cells; host or cells: HTLA cells, transient
T18 sequence (Q8TDT2 whole entry): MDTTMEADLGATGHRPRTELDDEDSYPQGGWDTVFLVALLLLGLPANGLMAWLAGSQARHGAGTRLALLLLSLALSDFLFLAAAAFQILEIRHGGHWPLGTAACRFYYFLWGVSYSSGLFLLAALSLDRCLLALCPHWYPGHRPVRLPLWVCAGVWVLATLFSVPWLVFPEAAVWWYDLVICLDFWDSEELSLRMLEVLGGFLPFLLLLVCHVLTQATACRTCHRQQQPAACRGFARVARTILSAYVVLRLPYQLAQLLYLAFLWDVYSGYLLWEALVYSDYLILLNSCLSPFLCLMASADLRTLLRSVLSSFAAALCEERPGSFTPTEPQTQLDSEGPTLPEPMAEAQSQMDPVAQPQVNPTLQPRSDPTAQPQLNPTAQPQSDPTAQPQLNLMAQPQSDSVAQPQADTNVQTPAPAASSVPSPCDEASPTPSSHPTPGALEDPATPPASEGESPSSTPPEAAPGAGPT

[23] = biological target: T19, 318 nonolfactory human GPCRs (Homo sapiens, UniProt Q8TDV2); conditions: GPR148; C21 5 µM
T19 construct: expressed in transfected cells; host or cells: HTLA cells, transient
T19 sequence (Q8TDV2 whole entry): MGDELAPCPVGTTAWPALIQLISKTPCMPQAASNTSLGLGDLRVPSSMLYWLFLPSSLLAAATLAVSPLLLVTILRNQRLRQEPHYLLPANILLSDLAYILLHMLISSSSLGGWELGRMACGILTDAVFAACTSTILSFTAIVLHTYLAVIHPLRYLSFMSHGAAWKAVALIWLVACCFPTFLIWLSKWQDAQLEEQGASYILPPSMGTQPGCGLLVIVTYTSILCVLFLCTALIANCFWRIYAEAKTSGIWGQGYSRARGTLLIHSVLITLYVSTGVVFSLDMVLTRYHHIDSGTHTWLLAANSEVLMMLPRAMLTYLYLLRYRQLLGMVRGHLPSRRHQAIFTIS

[24] = biological target: T20, 318 nonolfactory human GPCRs (Homo sapiens, UniProt Q92847); conditions: GHSR; C21 5 µM
T20 construct: expressed in transfected cells; host or cells: HTLA cells, transient

[25] = biological target: T21, 318 nonolfactory human GPCRs (Homo sapiens, UniProt Q99677); conditions: LPA4; C21 5 µM
T21 construct: expressed in transfected cells; host or cells: HTLA cells, transient
T21 sequence (Q99677 whole entry): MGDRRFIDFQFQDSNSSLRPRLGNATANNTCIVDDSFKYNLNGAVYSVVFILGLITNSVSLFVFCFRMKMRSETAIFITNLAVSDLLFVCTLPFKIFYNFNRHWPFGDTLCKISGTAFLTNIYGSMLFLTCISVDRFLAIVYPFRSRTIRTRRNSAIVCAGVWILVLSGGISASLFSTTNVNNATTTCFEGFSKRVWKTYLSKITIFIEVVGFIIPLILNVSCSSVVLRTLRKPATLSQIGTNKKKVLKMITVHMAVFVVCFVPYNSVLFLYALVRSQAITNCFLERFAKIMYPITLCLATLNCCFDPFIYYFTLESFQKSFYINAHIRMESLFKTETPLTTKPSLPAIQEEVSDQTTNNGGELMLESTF

[26] = biological target: T22, 318 nonolfactory human GPCRs (Homo sapiens, UniProt Q99679); conditions: GPR21; C21 5 µM
T22 construct: expressed in transfected cells; host or cells: HTLA cells, transient

[27] = biological target: T23, 318 nonolfactory human GPCRs (Homo sapiens, UniProt Q9BZJ7); conditions: GPR62; C21 5 µM
T23 construct: expressed in transfected cells; host or cells: HTLA cells, transient

[28] = biological target: T24, 318 nonolfactory human GPCRs (Homo sapiens, UniProt Q9H1C0); conditions: LPAR5; C21 5 µM
T24 construct: expressed in transfected cells; host or cells: HTLA cells, transient
T24 sequence (Q9H1C0 whole entry): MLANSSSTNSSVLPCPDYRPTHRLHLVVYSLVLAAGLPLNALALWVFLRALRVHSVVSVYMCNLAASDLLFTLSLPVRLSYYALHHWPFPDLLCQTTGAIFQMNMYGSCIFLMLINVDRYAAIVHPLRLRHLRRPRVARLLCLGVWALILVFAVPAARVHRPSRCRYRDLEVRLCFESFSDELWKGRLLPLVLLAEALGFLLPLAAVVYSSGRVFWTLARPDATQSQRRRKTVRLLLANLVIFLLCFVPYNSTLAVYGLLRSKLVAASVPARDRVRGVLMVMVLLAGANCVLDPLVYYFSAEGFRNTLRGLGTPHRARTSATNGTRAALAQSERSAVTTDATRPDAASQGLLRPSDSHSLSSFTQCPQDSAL

[29] = biological target: T25, 318 nonolfactory human GPCRs (Homo sapiens, UniProt Q9HBW9); conditions: ELTD1; C21 5 µM
T25 construct: expressed in transfected cells; host or cells: HTLA cells, transient
T25 sequence (Q9HBW9 20-690): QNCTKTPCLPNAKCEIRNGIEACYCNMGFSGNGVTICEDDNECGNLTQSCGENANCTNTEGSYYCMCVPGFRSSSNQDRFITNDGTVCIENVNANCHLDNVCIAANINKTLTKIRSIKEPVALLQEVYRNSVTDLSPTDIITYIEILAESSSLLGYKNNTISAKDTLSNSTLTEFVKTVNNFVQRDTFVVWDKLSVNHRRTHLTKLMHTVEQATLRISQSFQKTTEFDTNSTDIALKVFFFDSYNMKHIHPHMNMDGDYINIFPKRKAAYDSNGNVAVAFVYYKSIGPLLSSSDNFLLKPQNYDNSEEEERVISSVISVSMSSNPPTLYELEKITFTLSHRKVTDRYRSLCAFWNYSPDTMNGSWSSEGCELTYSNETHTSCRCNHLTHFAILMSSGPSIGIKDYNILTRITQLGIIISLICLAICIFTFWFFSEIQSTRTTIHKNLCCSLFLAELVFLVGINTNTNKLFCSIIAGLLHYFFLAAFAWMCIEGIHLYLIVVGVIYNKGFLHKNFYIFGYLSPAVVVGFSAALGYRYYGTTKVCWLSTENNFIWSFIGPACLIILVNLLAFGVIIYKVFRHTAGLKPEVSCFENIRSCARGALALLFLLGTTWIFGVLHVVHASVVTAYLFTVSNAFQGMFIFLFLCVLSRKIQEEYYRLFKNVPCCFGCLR

[30] = biological target: T26, 318 nonolfactory human GPCRs (Homo sapiens, UniProt Q9NS66); conditions: GPR173; C21 5 µM
T26 construct: expressed in transfected cells; host or cells: HTLA cells, transient

[31] = biological target: T27, 318 nonolfactory human GPCRs (Homo sapiens, UniProt Q9Y2T6); conditions: GPR55; C21 5 µM
T27 construct: expressed in transfected cells; host or cells: HTLA cells, transient

[32] = biological target: T28, 318 nonolfactory human GPCRs (Homo sapiens, UniProt Q9Y5N1); conditions: HRH3; C21 5 µM
T28 construct: expressed in transfected cells; host or cells: HTLA cells, transient
T28 sequence (Q9Y5N1 whole entry): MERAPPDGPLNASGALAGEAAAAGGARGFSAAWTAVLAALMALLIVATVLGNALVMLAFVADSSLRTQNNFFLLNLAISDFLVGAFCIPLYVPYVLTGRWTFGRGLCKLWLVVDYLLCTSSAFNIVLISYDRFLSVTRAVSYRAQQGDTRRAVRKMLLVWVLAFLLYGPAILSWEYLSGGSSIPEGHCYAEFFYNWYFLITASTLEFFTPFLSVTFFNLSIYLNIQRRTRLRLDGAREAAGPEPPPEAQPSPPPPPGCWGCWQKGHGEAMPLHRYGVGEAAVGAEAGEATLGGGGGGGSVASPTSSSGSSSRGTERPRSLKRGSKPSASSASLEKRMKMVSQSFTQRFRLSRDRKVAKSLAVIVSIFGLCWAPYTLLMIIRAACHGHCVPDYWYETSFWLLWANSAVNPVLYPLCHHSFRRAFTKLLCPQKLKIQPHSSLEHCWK

[33] = system: 318 nonolfactory human GPCRs; conditions: for FOLD OVER BASAL: C21 5 µM

c1ccc2c(c1)N=C(N1CCNCC1)c1ccccc1N2 [C21, 11-(1-piperazinyl)-5H-dibenzo[b,e][1,4]diazepine]
FOLD OVER BASAL [1]: 0.7 fold and 0.9 fold and 0.6 fold | FOLD OVER BASAL [2]: 0.4 fold and 0.7 fold and 0.8 fold | FOLD OVER BASAL [3]: 1.1 fold and 0.9 fold and 1.2 fold and 0.7 fold | FOLD OVER BASAL [4]: 0.7 fold and 0.8 fold and 0.5 fold and 0.9 fold | FOLD OVER BASAL [5]: 0.8 fold and 1 fold and 0.5 fold and 0.7 fold | FOLD OVER BASAL [6]: 0.8 fold and 1.4 fold and 0.9 fold | FOLD OVER BASAL [7]: 1 fold and 1.1 fold and 1.3 fold | FOLD OVER BASAL [8]: 1.2 fold and 0.8 fold and 0.6 fold and 0.7 fold | FOLD OVER BASAL [9]: 0.8 fold and 0.5 fold and 1 fold | FOLD OVER BASAL [10]: 1 fold and 0.6 fold and 0.8 fold | FOLD OVER BASAL [11]: 0.6 fold and 1.2 fold and 0.9 fold and 0.7 fold | FOLD OVER BASAL [12]: 1.1 fold and 0.9 fold and 1.2 fold | FOLD OVER BASAL [13]: 0.6 fold and 0.9 fold and 0.8 fold | FOLD OVER BASAL [14]: 1.2 fold and 0.6 fold | FOLD OVER BASAL [15]: 1.1 fold and 0.7 fold | FOLD OVER BASAL [16]: 0.9 fold and 1.3 fold and 1 fold and 1.2 fold | FOLD OVER BASAL [17]: 0.3 fold and 0.2 fold and 0.4 fold | FOLD OVER BASAL [18]: 0.3 fold and 0.4 fold | FOLD OVER BASAL [19]: 0.9 fold and 1.1 fold and 1 fold and 0.7 fold | FOLD OVER BASAL [20]: 1.3 fold and 1.2 fold and 0.7 fold and 1.1 fold | FOLD OVER BASAL [21]: 0.5 fold and 0.8 fold and 1 fold and 0.9 fold | FOLD OVER BASAL [22]: 0.5 fold and 0.7 fold and 0.6 fold | FOLD OVER BASAL [23]: 0.9 fold and 0.6 fold and 0.5 fold and 1 fold | FOLD OVER BASAL [24]: 0.9 fold and 1 fold | FOLD OVER BASAL [25]: 1.2 fold and 1.1 fold and 0.8 fold | FOLD OVER BASAL [26]: 0.9 fold and 0.8 fold and 1.2 fold and 0.7 fold | FOLD OVER BASAL [27]: 0.8 fold and 0.5 fold and 0.9 fold | FOLD OVER BASAL [28]: 0.8 fold and 1.2 fold and 0.6 fold and 0.7 fold | FOLD OVER BASAL [29]: 0.6 fold and 0.8 fold and 1 fold and 0.7 fold | FOLD OVER BASAL [30]: 0.8 fold and 0.5 fold | FOLD OVER BASAL [31]: 0.7 fold and 1 fold and 0.8 fold | FOLD OVER BASAL [32]: 1.3 fold and 0.9 fold and 0.8 fold | FOLD OVER BASAL ([33]; CALCRb): 0.8 fold and 0.6 fold and 0.5 fold | FOLD OVER BASAL ([33]; GAL2): 1.2 fold and 0.9 fold and 1.3 fold | FOLD OVER BASAL ([33]; GAL3): 1.1 fold and 0.7 fold and 0.9 fold | FOLD OVER BASAL ([33]; HCTR2): 1.1 fold and 0.8 fold and 0.6 fold | FOLD OVER BASAL ([33]; PK1): 1.3 fold and 1.4 fold and 0.8 fold and 1.5 fold | FOLD OVER BASAL ([33]; PRRP): 1 fold and 0.9 fold and 0.6 fold | agonist activity at GPCRome (fold of basal) ([33]; single concentration 5 μM, PRESTO-Tango, quadruplicate): agonist activity only at M4-, D2-, and H4-histamine receptors
